Patent US20150065436A1, “INHIBITING INTERACTION BETWEEN HIF-1ALPHA AND p300/CBP WITH HYDROGEN BOND SURROGATE-BASED HELICES” (UNIVERSITY OF SOUTHERN CALIFORNIA, priority 2013, published 2015)

Tests used:
[1] = target: T1, p300-CH1 (Homo sapiens, UniProt Q09472); assay: Tryptophan fluorescence binding assay; details: for Kd: 15N-labeled p300 CH1 domain, Trp403 fluorescence, read-out: dissociation constant, Kd
T1 construct: human p300 CH1 domain (amino acid residues 323-423); GST (cleaved yes); made in house; host or cells: E. coli BL21 (DE3)
T1 sequence (Q09472 323-423): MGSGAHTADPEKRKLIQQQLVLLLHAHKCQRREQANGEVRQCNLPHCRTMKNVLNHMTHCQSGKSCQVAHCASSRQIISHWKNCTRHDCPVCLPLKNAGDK
Text: The DNA sequence of human p300 CH1 domain ([…]) was designed as an insert and subcloned into a pUC57 plasmid by Genscript, Inc. After transformation of the plasmid in JM109 bacteria (Promega), the gene sequence was subcloned into BamHI and EcoRI restriction sites of pGEX-4T-2 expression vector (Amersham). The pGEX 4T-2-p300 fusion vector was transformed into BL21 (DE3)-competent E. coli (Novagen) in M9 minimal media with ^15NH4Cl as the main nitrogen source. Protein production was induced with 1 mM IPTG at O.D. 600 of 1 for 16 hours at 15° C. Production of the desired p300-CH1-GST fusion product was verified by SDS-PAGE. Bacteria were harvested and resuspended in the lysis buffer with 20 mM Phosphate buffer (Research Products International, Corp.), 100 μM DTT (Fisher), 100 μM ZnSO4 (Sigma), 0.5% TritonX 100 (Sigma), […] Pepstatin A (Research Products International, Corp.), […] Leupeptin A (Research Products International, Corp.), 500 μM PMSF (Sigma), and 0.5% glycerol at pH 8.0. Pellets were lysed by sonication and centrifuged at 4° C., 20,000 rpm, for 20 minutes. Fusion protein was collected from the bacterial supernatant and purified by affinity chromatography using glutathione Sepharose 4B beads (Amersham) prepared according to the manufacturer's directions. GST-tag was cleaved by thrombin and protein was eluted from resin. […] Spectra were recorded on a QuantaMaster 40 spectrofluorometer (Photon Technology International) in a 10 mm quartz fluorometer cell at 25° C. with 4 nm excitation and 4 nm emission slit widths from 200 to 400 nm at intervals of 1 nm/s. Samples were excited at 295 nm and fluorescence emission was measured from 200-400 nm and recorded at 335 nm. Peptide stock solutions were prepared in DMSO. Aliquots containing 1 μL DMSO stocks were added to 400 μL of 1 μM p300-CH1 in 50 mM Tris and 100 mM NaCl (pH 8.0). After each addition, the sample was allowed to equilibrate for 5 minutes before UV analysis. Background absorbance and sample dilution effects were corrected by titrating DMSO into p300-CH1 in an analogous manner. Final fluorescence is reported as the absolute value of [(F1-F0)/F1]*100, where F1 is the final fluorescence upon titration and F0 is the fluorescence of the blank DMSO titration. EC50 values for each peptide were determined by fitting the experimental data to a sigmoidal dose-response nonlinear regression model on GraphPad Prism 5.0, and the dissociation constants, KD, were obtained from equation (1) […] The affinity of peptides for the ^15N-labeled p300 CH1 domain was evaluated using tryptophan fluorescence spectroscopy. […] The binding affinity of HIF-1αC-TAD to CH1 in this assay is consistent with that obtained from a fluorescence polarization assay using fluorescein-labeled HIF-1αC-TAD (FIG. 11 and FIG. 12) and those using isothermal titration microcalorimetry.

[2] = target: T2, 15N-labelled p300-CH1 (Homo sapiens, UniProt Q09472); assay: 1H-15N HSQC NMR titration; format: binding; details: 69 μM CH1, CH1:HBS 1 ratios 1:1, 1:3, 1:5, 1:10
T2 construct: human p300 CH1 domain (amino acid residues 323-423); GST (cleaved yes); made in house; host or cells: E. coli BL21 (DE3)
T2 sequence (Q09472 323-423): as above
Experimental: Protein samples were prepared as described above. Uniformly ^15N-labelled p300-CH1 was concentrated to 69 μM in NMR buffer (10 mM Tris pH 8, 50 mM NaCl, 2 mM DTT, and 207 μM ZnSO4) using a 3 kDa MWCO Amicon Ultra centrifugal filter (Millipore) and supplemented with 5% D2O. For HSQC titration experiments, data was collected on a 600 MHz Bruker four-channel NMR system at 25° C. and analyzed with the TopSpin software (Bruker). For Zn^2+ experiments, data were collected on Agilent 600 MHz at 25° C. and analyzed using Sparky3 (Univ. of California).
For the HSQC titration experiments, five and ten molar equivalents of HBS 1 in DMSO were added to ^15N-labelled p300-CH1, and the data were collected as described above. Mean chemical shift difference (ΔδNH) observed for ^1H and ^15N nuclei of various resonances were calculated as described in Williamson, “Using Chemical Shift Perturbation to Characterise Ligand Binding,” Prog. Nucl. Mag. Resonance Spectr. […]
To further characterize the interaction of HBS 1 with the CH1 domain, ^1H-^15N HSQC NMR titration experiments were performed with uniformly ^15N-labeled CH1. […] This cleft includes Trp403 and chemical shift perturbations observed for this residue support the results of the fluorescence titration experiments. […]

[3] = tested on: HIF-1α; assay: Western blot analysis of HIF-1α levels; format: cell-based, human; details: HeLa cells, 10 μM, hypoxia mimicked with DFO 300 μM
Experimental: HeLa cells were plated in a 75 cm^2 culture flask and allowed to reach 70% confluence. Cells were treated with vehicle or HBS 1 at 10 μM concentration in the cell culture media containing 10% FBS. […] Cells were incubated for 6 hours and hypoxia was induced with 300 μM. DFO. After incubation for an additional 18 hours, cells were lysed and cytoplasmic and nuclear extracts were collected using a NE-PER kit (Pierce) according to the manufacturer's protocol and blotted as described in Dubey et al., “Suppression of Tumor Growth by Designed Dimeric Epidithiodiketopiperazine Targeting Hypoxia-Inducible Transcription Factor Complex,” J. Am. Chem. Soc. 135(11):4537-49 (2013), which is hereby incorporated by reference in its entirety.
To exclude the possibility that the observed down-regulation in the expression of hypoxia-inducible genes was due to a change in the levels of HIF-1α protein itself, a western blot analysis of HIF-1α was performed in hypoxic cells treated with HBS 1. […] As expected, the levels of induced HIF-1α protein were unaffected by treatment with HBS 1 (FIG. 16).

[4] = tested on: 786-O renal cell carcinoma tumors
Experimental: Mice (n=6) were inoculated with 786-O cells (2×10^6 cells) into the right flank and allowed to grow tumors for 21 days. […] In parallel, a control group (n=6) received injections of PBS. Tumor sizes were measured on Days 2, 3, 4, 6, 8, 11, 13, 16, 20, 25, 28, and 33. […] At a conclusion of the study, mice were injected intraperitoneally with the near-infrared dye IR-783 contrast agent and the tumors were imaged using Xenogen IVIS 200 small animal imager.
The CrTac:NCr-Foxn1^nu mouse (Taconic, Inc.) was used for efficacy studies. […] Measurable tumors (˜100 mm^3) grew in as little as 2-3 weeks after the inoculation of 2×10^6 cells into the flank of the mice. […] Tumor sizes were measured in accordance with literature recommendations.

[5] = at conclusion of study, IR-783 imaging

Row | SMILES | Kd [1] | increase in binding affinity by stabilization of the peptide conformation ([1]; HBS 1 versus unconstrained peptide 3) | shift in CH1 resonances on addition of compound [2] | levels of induced HIF-1α protein [3] | median tumor volume reduction compared to control group ([4]; 13 mg/kg parenterally, 5 injections, 786-O xenograft) | median tumor volume ([4]; 13 mg/kg, 786-O xenograft, volumes measured throughout the study) | NIR signal (IR-783) from the main tumor [4, 5] | NIR signal (IR-783) in lymph nodes, brain or other organs (metastasis) [4, 5] | binding affinity relative to HBS 1 ([1]; CH1 domain, compared with HBS 1)
1 | CC(C)C[C@H](NC(=O)[C@H](C)NC(=O)[C@H](CCCNC(=N)N)NC(=O)[C@H](C)N1CC=CCCC(=O)N[C@@H](CCC(=O)O)C(=O)N[C@@H](CC(C)C)C1=O)C(=O)N[C@@H](CC(=O)O)C(=O)N[C@@H](CCC(N)=O)C(N)=O [HBS 1, XELA*RALDQ-NH2] | 690 ± 25 nM | 9 fold | concentration-dependent shift in the resonances of several CH1 residues | unaffected | 53% | 138 mm^3 | significantly reduced signal | no detectable NIR signal | 
2 | CC(C)C[C@@H]1NC(=O)[C@H](CCC(=O)O)NC(=O)CCC=CCN([C@@H](C)C(=O)N[C@@H](CCCNC(=N)N)C(=O)N[C@@H](C)C(=O)N[C@@H](C)C(=O)N[C@@H](CC(=O)O)C(=O)N[C@@H](CCC(N)=O)C(N)=O)C1=O [HBS 2, XELA*RAADQ-NH2] | 2820 ± 140 nM |  |  |  |  |  |  |  | four-fold weaker
